# Reference: patent US10829796B2, “Bacteria identification and antimicrobial susceptibility test” (priority 2015, dated 2020)
# Tested on: Streptococcus uberis
# Experiment: Group D Streptococci identification, esculin/ferric citrate in TSB (blackening = growth), bacteria in milk
# Assay type: cell-based
# Settings: TSB containing 0.5% esculin and 0.25% ferric citrate + 80 uL spiked milk; 100 ug/ml aztreonam and/or 0.5 mg/mL phenol red
# Method: By way of illustration, the same experiment was conducted as above, only this time using clinical milk samples obtained from a bovine animal suspect of being infected with mastitis.
# However, Applicant has discovered that increased amounts of esculin and ferric citrate may be used in milk derived clinical samples. For example, at concentrations of at least 2% esculin and 1% ferric citrate, the growth of Streptococcus uberis is not inhibited.
# Note, in the experiments above, the clinical sample tested was milk obtained from a bovine animal suspected of being infected by mastitis. If a non-milk clinical sample were to be tested, then inclusion of a stabilizing agent (e.g. milk in the form of a liquid or powder) would be required in order to suppress the growth inhibitory effect of esculin and ferric citrate at the higher concentrations used according to this invention.
# Applicant further discovered that TSB containing 0.5% esculin and 0.25% ferric citrate and 80 uL of spiked Streptococcus uberis milk sample which also contained 100 ug/ml aztreonam concentration (antibiotic which has activity against many gram-bacteria such as E. coli) and/or in combination with 0.5 mg/mL phenol red led to easy detectable colour changes. No inhibition of Streptococcus uberis due to phenol red or aztreonam was detected.
structure (smiles),measurement,value
C[C@H]1[C@H](NC(=O)/C(=N\OC(C)(C)C(=O)O)c2csc(N)n2)C(=O)N1S(=O)(=O)O [aztreonam],Inhibition of Streptococcus uberis,No inhibition
